Test results as given in patent US9341616B2, “Sweet taste receptor chimeric proteins and use thereof” (AJINOMOTO CO., INC., priority 2014, dated 2016).
Residues, ends and D or L forms follow the SMILES beside them.

The molecules below were run against h-mT1R2-471/T1R3mosaicA (UniProt Q8TE23+Q925D8, A12W/A31M/A537S/A558R/A564V/A568V/A570T/A588V/A645S/A649T/A658V/A698V/A702T/A782V/A793V/A807V/C582S/C678S/D480N/E16H/E530V/E534N/E542M/E548N/E725V/F14L/F29L/F525Y/F541I/F612A/F622V/F665L/F695L/G696N/G701T/H484Y/H528R/H728R/I36V/I481V/I486P/I490V/I510L/I518V/I595M/I60P/I617V/I643V/I645L/I692L/I695G/I706V/I740A/I803L/K30R/K476T/K504M/K555R/K565R/K626T/K714N/K818R/K827G/L17P/L471T/L521P/L560F/L571I/L578I/L610P/L631F/L636F/L639V/L684P/L688V/L702I/L734M/L735F/L800F/L823M/L825Q/M19T/M492I/M616G/M644L/M682V/M690V/M744T/M748V/N477Y/N52R/N540G/N541S/N547G/N58S/N63T/N675D/N721H/P545F/P561R/P564S/P61V/P638T/P824S/Q32K/Q472E/Q474R/Q479S/Q536L/Q53S/Q546K/Q550E/Q555R/Q56R/Q611L/Q676H/Q757R/Q795R/Q831P/R473T/R498S/R632Q/R667S/S22P/S45E/S501P/S547N/S550A/S576L/S595F/S610P/S628F/S635P/S637R/S663R/S670G/S679G/S681F/S703N/S717H/S727G/S784D/S804G/T46A/T50G/T529S/T542A/T549I/T609V/T629S/T642S/T663I/T694M/T705I/T706G/T716I/T813A/V508I/V512P/V557A/V573A/V584A/V585L/V613L/V617M/V673M/V687A/V691A/V694A/V718L/V718M/V723A/V729T/V738A/V741L/V774I/V791M/V805L/V812A/V821L/W599R/W676R/W824R/Y533F/Y615F/Y671F/Y680C/Y769S/Y783H/Y794L). Conditions: Table 4; genes h-mT471/T3mA (h-mT1R2-471, T1R3mA); HEK293E cells.
h-mT1R2-471/T1R3mosaicA, sequence (Q8TE23 with tags, fused parts or gaps with the stated changes limits assumed): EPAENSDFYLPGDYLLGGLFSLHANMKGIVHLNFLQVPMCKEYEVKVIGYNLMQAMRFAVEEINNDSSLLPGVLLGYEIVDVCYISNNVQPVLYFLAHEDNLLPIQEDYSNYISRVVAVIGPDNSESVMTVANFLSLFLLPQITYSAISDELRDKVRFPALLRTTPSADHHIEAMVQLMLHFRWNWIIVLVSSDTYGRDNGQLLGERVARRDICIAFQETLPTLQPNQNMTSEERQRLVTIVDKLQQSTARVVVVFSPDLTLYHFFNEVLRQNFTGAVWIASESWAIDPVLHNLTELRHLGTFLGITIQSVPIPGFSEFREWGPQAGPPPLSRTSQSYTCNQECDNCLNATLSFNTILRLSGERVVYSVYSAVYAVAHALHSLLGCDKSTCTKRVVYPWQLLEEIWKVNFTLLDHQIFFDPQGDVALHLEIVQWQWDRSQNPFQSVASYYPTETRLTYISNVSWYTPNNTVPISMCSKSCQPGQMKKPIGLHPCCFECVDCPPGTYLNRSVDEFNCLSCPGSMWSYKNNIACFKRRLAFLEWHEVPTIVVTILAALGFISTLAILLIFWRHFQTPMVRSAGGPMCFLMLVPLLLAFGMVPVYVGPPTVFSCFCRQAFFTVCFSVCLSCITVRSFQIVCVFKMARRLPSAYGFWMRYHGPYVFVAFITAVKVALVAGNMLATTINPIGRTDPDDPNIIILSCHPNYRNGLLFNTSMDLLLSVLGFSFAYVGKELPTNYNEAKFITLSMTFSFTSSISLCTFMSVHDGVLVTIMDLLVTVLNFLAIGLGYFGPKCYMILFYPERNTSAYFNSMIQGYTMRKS
h-mT1R2-471/T1R3mosaicA, sequence (Q925D8 with tags, fused parts or gaps with the stated changes limits assumed): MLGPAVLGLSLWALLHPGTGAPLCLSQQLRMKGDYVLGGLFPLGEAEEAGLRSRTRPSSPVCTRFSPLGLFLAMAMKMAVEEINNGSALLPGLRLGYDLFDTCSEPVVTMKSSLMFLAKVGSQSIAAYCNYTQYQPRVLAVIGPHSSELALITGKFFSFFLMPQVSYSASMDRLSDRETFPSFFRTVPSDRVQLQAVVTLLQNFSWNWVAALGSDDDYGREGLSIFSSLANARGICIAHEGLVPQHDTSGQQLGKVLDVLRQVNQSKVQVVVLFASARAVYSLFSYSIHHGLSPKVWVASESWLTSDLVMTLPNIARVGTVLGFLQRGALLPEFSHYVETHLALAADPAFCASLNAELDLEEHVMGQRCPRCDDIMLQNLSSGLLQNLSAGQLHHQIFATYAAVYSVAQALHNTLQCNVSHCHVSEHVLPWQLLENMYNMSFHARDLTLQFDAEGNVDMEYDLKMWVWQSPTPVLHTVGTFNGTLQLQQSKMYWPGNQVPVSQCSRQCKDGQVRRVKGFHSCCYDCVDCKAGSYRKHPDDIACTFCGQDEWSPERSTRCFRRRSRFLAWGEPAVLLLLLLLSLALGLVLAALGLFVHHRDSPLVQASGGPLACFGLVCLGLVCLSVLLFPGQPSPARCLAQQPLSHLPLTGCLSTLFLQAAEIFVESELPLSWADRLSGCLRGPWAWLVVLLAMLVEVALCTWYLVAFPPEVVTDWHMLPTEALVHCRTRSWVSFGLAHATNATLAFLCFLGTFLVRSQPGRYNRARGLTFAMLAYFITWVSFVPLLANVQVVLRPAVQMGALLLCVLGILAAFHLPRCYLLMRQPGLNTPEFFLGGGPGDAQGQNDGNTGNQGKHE

Row | Compound | S/N
1 | COC(=O)[C@H](Cc1ccccc1)NC(=O)[C@H](CC(=O)O)NCCC(C)(C)C [Neotame, neotame] | 8.3
2 | COC(=O)[C@H](Cc1ccccc1)NC(=O)[C@H](CC(=O)O)NCCCc1ccc(OC)c(O)c1 [Advantame, advantame] | 10.0
3 | OC[C@H]1O[C@@](CO)(O[C@H]2O[C@H](CO)[C@@H](O)[C@H](O)[C@H]2O)[C@@H](O)[C@@H]1O [Sucrose, sucrose] | 3.5
4 | COC(=O)[C@H](Cc1ccccc1)NC(=O)[C@@H](N)CC(=O)O [Aspartame, aspartame] (HELM PEPTIDE1{D.F.[CO[*:1]]}$$$$V2.0) | 7.9
5 | O=C1NS(=O)(=O)c2ccccc21.[Na] [Saccharin Na, sodium saccharin] | 3.9
6 | C[C@H](NC(=Nc1ccc(C#N)cc1)NCC(=O)O)c1ccccc1 [SC-45647, [3-[(S)-1-phenylethyl]-2-(4-cyanophenyl)guanidino]acetic acid] | 6.5
7 | OC[C@H]1O[C@H](O[C@]2(CCl)O[C@H](CCl)[C@@H](O)[C@@H]2O)[C@H](O)[C@@H](O)[C@H]1Cl [Sucralose, sucralose] | 7.1
8 | CC1=CC(=O)NS(=O)(=O)O1 [Acesulfame K, acesulfame potassium] | 4.3
